# According to patent publication US20210308117A1, “METHODS OF TREATING VIRAL INFECTIONS USING INHIBITORS OF NUCLEOTIDE SYNTHESIS PATHWAYS” (priority 2020, published 2021):
# Like-named read-outs stand apart in the source and are kept apart here.
# Key:
# [1] = weekly rapid iv injection; previously treated patients with advanced lung cancer; cited from earlier work
# [2] = cited from earlier work
# H1-HeLa cells [3] = details: human, 3 days
# SARS-CoV-2 = assay: microbe, parasite or virus in culture; type: cell-based
# [4] = test system: HuH7 (human hepatocellular carcinoma); details: cited from earlier work
# [5] = test system: 16HBE (human bronchial epithelial); details: cited from earlier work
# Vero76 (monkey kidney) = details: cited from earlier work
# [6] = human, in vivo
# RNA virus = assay: Daily dosing of brequinar in a subject infected with an RNA virus; type: in vivo; details: once per day for five consecutive days; first peak in brequinar level
# Description: The mechanism by which administration of a DHODH inhibitor according to a daily dosing regimen inhibits viral replication is illustrated below. […] Throughout the course of the dosing regimen, levels of intracellular pyrimidines, such as uridine, and viral replication are measured.
# [7] = Adverse events in subjects receiving brequinar; details: i.v. once a week
# [8] = test system: HeLa (human cervical tumor); details: cited from earlier work
# [9] = test system: Primary Human Fibroblasts; details: cited from earlier work
# H1-HeLa cells [10] = assay: Cytotoxicity XTT assay in H1-HeLa cells; details: read-out: TC50, 3 days
# Vero (monkey kidney) = details: cited from earlier work
# [11] = in vivo, iv; cited from earlier work
# clinical = details: human, in vivo, po
# Vero E6 cells = details: remdesivir co-treated with brequinar
# [12] = 1-h i.v. infusion every 3 weeks
smiles,measurement,setting,value
"NC(=O)c1[nH]nc([C@@H]2O[C@H](CO)[C@@H](O)[C@H]2O)c1O [pyrazofurin, 5-[(2S,3R,4S,5R)-3,4-dihydroxy-5-(hydroxymethyl)oxolan-2-yl]-4-hydroxy-1H-pyrazole-3-carboxamide]",therapeutic value,[1],little therapeutic value as a single agent
Cc1c(-c2ccc(-c3ccccc3F)cc2)nc2ccc(F)cc2c1C(=O)O [brequinar sodium],"recommended dose for phase II studies, good-risk patients",[2]; [12],"1,800 mg/m^2"
same,"recommended dose for phase II studies, poor-risk patients",[2]; [12],"1,200 mg/m^2"
same,"maximum tolerable dose, good-risk patients",[2]; i.v. infusion every 3 weeks,"2,250 mg/m^2"
same,"maximum tolerable dose, poor-risk patients",[2]; i.v. infusion every 3 weeks,"1,500 mg/m^2"
CCOC(=O)/C=C/[C@H](C[C@@H]1CCNC1=O)NC(=O)[C@@H](CC(=O)[C@@H](NC(=O)c1cc(C)on1)C(C)C)Cc1ccc(F)cc1 [Rupintrivir],CC50,H1-HeLa cells [3],> 0.1 µM
NC(=O)c1ncn([C@@H]2O[C@H](CO)[C@@H](O)[C@H]2O)n1 [ribavirin],EC50,"SARS-CoV-2; Severe acute respiratory syndrome coronavirus 2, Vero C1008, SARS-CoV-2, Vero E6, MOI 0.05, read-out: EC50 (50% of the maximum CPE-protection effect of the compound)",> 50 µM
"Cc1c(-c2ccc(-c3ccccc3F)cc2)nc2ccc(F)cc2c1C(=O)O [brequinar, 6-fluoro-2-(2′-fluoro-1,1′ biphenyl-4-yl)-3-methyl-4-quinoline carboxylic acid]",CC50,[4],> 25 µM
same,CC50,[5],> 50 µM
same,CC50,Vero76 (monkey kidney),> 50 µM
same,cumulative effect of repeated doses,[6],No cumulative effective of repeated doses
same,intracellular pyrimidine pool,RNA virus,dramatic decrease in the intracellular pyrimidine pool
same,"Infection: No. of Patients, Max Grade 1",[7],4
same,"Infection: No. of Patients, Max Grade 2",[7],3
same,"Infection: No. of Patients, Max Grade 3",[7],0
same,"Infection: No. of Patients, Max Grade 4",[7],0
same,CC50,[8],> 25 µM
same,CC50,[9],> 50 µM
same,CC50,H1-HeLa cells [10],0.3 µM
same,CC50,Vero (monkey kidney),> 50 µM
same,"recommended dose for phase II evaluation, good risk patients",[11],250 mg/m^2
same,"recommended dose for phase II evaluation, poor risk patients",[11],135 mg/m^2
same,bioavailability,clinical,> 90%
CC(C)C[C@H](NC(=O)OCc1ccccc1)C(=O)N[C@@H](CC1CCNC1=O)C(O)S(=O)(=O)[O-].[Na+] (stereo partly drawn) [GC-376],SI50 (Selective Index 50 = CC50/IC50),SARS-CoV-2,>24.5
CCC(CC)COC(=O)[C@H](C)N[P@](=O)(OC[C@H]1O[C@@](C#N)(c2ccc3c(N)ncnn23)[C@H](O)[C@@H]1O)Oc1ccccc1 [remdesivir],fold increase in activity of remdesivir,SARS-CoV-2,> 6.8 fold
same,E(Max),"SARS-CoV-2; SARS-CoV-2, Vero E6, maximum CPE-protection effect",100
same,cytotoxicity by the co-treatment,Vero E6 cells,No enhanced cytotoxicity
